The structures appear in SMILES notation. Like-named read-outs stand apart in the source and are kept apart here.

This test has as its system mouse T lymphocytes. As to the kind of experiment: T-cell proliferation assay (ionomycin plus PMA induced T-cell stimulation, tritiated thymidine uptake). The settings on record: for IC50: read-out: IC₅₀, inhibition of T-cell proliferation. Format: cell-based, C57B1/6 mice. How it is done: The principle of this assay is to measure the proliferation of mouse T lymphocytes stimulated with the combination of ionomycin plus PMA. A positive sample in this assay will inhibit T-cell proliferation, as indicated by reduced tritiated thymidine uptake.
Purified demethimmunomycin, as prepared by HPLC above, was dissolved in absolute ethanol at 1 mg/ml.
Spleens from C57B1/6 mice were taken under sterile conditions and gently dissociated in ice-cold RPMI 1640 culture medium (GIBCO, Grand Island, N.Y.) supplemented with 10% heat-inactivated fetal calf serum (GIBCO). Cells were pelleted by centrifugation at 1500 rpm for 8 minutes. Contaminating red cells were removed by treating the pellet with ammonium chloride lysing buffer (GIBCO) for 2 minutes at 4°C. Cold medium was added and cells were again centrifuged at 1500 rpm for 8 minutes. T lymphocytes were then isolated by separation of the cell suspension on nylon wool columns as follows: Nylon wool columns were prepared by packing approximately 4 grams of washed and dried nylon wool into 20 ml plastic syringes. The columns were sterilized by autoclaving at 250°F [120°C] for 30 minutes. Nylon wool columns were wetted with warm (37°C) culture medium and rinsed with the same medium. Washed spleen cells resuspended in warm medium were slowly applied to the nylon wool. The columns were then incubated in an upright position at 37°C for 1 hour. Non-adherent T lymphocytes were eluted from the columns with warm culture medium and the cell suspensions were spun as above.
Purified T lymphocytes were resuspended at 2.5 x 10⁵ cells/ml in complete culture medium composed of RPMI 1640 medium with 10% heat-inactivated fetal calf serum, […] glutamine, 1 mM sodium pyruvate, 2 x 10⁻⁵ M 2-mercaptoethanol and 50 »g/ml gentamycin. Ionomycin was added at 250 ng/ml and PMA at 10 ng/ml. The cell suspension was immediately distributed into 96 well flat-bottom microculture plates (Costar)(registered trade mark) at 200 »l/well. The control, being the medium without test drug, and various below-indicated dilutions of the sample (above-described purified demethimmunomycin) to be tested were then added in triplicate wells at 20 »l/well. L-679,934 was used as a standard. The culture plates were then incubated at 37°C in a humidified atmosphere of 5% CO₂-95% air for 44 hours. The proliferation of T lymphocytes was assessed by measurement of tritiated thymidine incorporation. After 44 hours of culturing, the cells were pulse-labelled with 2 »Ci/well of tritiated thymidine (NEN, Cambridge, MA). After another 4 hours of incubation, cultures were harvested on glass fiber filters using a multiple sample harvester. Radioactivity of filter discs corresponding to individual wells was measured by standard liquid scintillation counting methods (Betacounter). Mean counts per minute of replicate wells were calculated and the results expressed as percent inhibition of tritiated thymidine uptake (proliferation) as follows: [formula]
• 1. Mouse T cell cultures were pulsed with ³H-thymidine for 4 hours prior to harvesting at 48 hours. • 2. […] IC₅₀ = 1.4 ng/ml = 1.81 nM, for demethimmunomycin, (L-638,742), and generally in the range of 1.6 to 1.9 x 10⁻⁹ molar. • 4. Inhibition of T-cell proliferation by demethimmunomycin was reversed by the addition of 50»/ml of IL-2 (recombinant IL-2) at the initiation of culture.

The mark [1] stands for this setting: Mus musculus, T-lymphocyte, 48 h.

By inhibition is commonly meant the percentage by which the read-out fell short of the control. Consider `CC[C@@H]1/C=C(\C)C[C@H](C)C[C@H](OC)[C@H]2O[C@@](O)(C(=O)C(=O)N3CCCC[C@H]3C(=O)O[C@H](/C(C)=C/[C@@H]3CC[C@@H](O)[C@H](O)C3)[C@H](C)[C@@H](O)CC1=O)[C@H](C)C[C@@H]2OC` [demethimmunomycin, 31-desmethoxy-31-hydroxy-L-683,590], for which, under setting [1], the inhibition at 0.0006 µg/mL worked out at 0%, the inhibition at 0.0009 µg/mL came to 9%, the inhibition at 0.0013 µg/mL stood at 38.2% and the inhibition at 0.0019 µg/mL is 72.1%. Under setting [1], the inhibition at 0.0029 µg/mL was found to be 86.3%, the inhibition at 0.0044 µg/mL was found to be 91.9% and the inhibition at 0.0066 µg/mL was 97.9%. For the same compound, under “Mus musculus, T-lymphocyte”, the IC50 amounted to 1.4 ng/mL. In addition, the IC50 (Mus musculus, T-lymphocyte, range generally found) lay in the range of 1.6 to 1.9 nM. Moreover, for the setting “Mus musculus, T-lymphocyte, same value as 1.4 ng/ml, given in molar terms”, the IC50 came to 1.81 nM. Moreover, where the note is “addition of recombinant IL-2 at the initiation of culture”, the “Inhibition of T-cell proliferation on addition of IL-2” value is given as “reversed”.

Source of the values: patent EP0349061B1, “Immunosuppressant agent” (Merck & Co., Inc., priority 1988, dated 1990).
